Measured values taken from a melting point compilation (Tetko et al.; mined from patent text by program, amines drawn as free bases though some values may be those of a salt).

Row | Compound | melting point [°C]
1 | CCCCCC(CC(=O)Nc1cc(C(N)=O)ccc1C(C)(C)C)c1ccc(C)cc1OC (stereo not given) | 175 to 177
2 | COc1cc2cc(CO)c(CO)c(-c3ccnc(NN)c3)c2cc1OC | 214 to 220
3 | N#Cc1ccc2c(c1)S(=O)(=O)c1ccc(Cl)cc1C=C2 | 228 to 230
4 | CC(NC(=O)CCCCCCCCC#CC#CCCCCCCCCC(=O)NC(C)c1ccccc1)c1ccccc1 (stereo not given) | 87.5 to 89
5 | O=C(Nc1c[nH]nc1C(=O)NCCCO)c1ccccn1 | 209 to 211
6 | Cc1cc(-c2cccc(C(F)(F)F)c2)c2nc(OCC(F)(F)F)cnc2c1 | 46 to 48
7 | CC(=O)COc1c(-c2ccccc2)c(=O)[nH]c2cc(Cl)ccc12 | 185 to 186
8 | CC(=O)SCC(Cc1ccccc1)C(=O)Nc1cc(C)cc(C(=O)O)c1C (stereo not given) | 182 to 186
9 | CCCCCNC(=O)Nc1ccccc1C(=O)NCCC1CCN(C(c2ccccc2)c2ccccc2)CC1 | 124 to 127
10 | C#CC1C2=C(C(=O)CCC2)c2ccc(OC(=O)C(C)(C)C)cc2N1C(=O)Oc1ccccc1 (stereo not given) | 140 to 142
11 | NC(=O)c1cc(-c2ccnc(Nc3cccc(C(F)(F)F)c3)n2)ccn1 | 240 to 242
12 | C=CCCCCCCCCC(=O)N1CCN(c2cc(N)nc(N)n2)CC1 | 100 to 104
13 | COc1ccc(-c2cc(C(F)(F)F)ccc2/C=C/C(=O)Nc2ccc3[nH]ccc3c2)cn1 | 219 to 221
14 | CCOC(=O)c1cc2c([nH]1)c(N(C)S(=O)(=O)c1cccs1)cn2CC | 122
15 | COc1cc(OC)cc(-c2ccc(N(C)CCN(C)c3ccc(-c4cc(OC)cc(OC)c4)nc3)cn2)c1 | 139 to 141
16 | CSc1ccc(-c2n[nH]c(=S)cc2-c2ccc(F)cc2)cc1 | 219
17 | COC(=O)Cc1ccc(Sc2ccccc2C(=O)O)c([N+](=O)[O-])c1 | 135 to 136
18 | CC1CC2CC(Cc3ccc(O)cc3)CCC2NC1=O (stereo not given) | 217 to 223
19 | CC(C)(C)OC(=O)N[C@@H](Cc1cscn1)C(=O)O | 115
20 | N#CC1=Cc2ccccc2C(N2CCN(N=Cc3ccccn3)CC2)c2ccccc21 (stereo not given) | 182 to 184
21 | O=C(NC1CN2CCC1CC2)c1cccc2nc(-c3ccc(Cl)cc3)oc12 (stereo not given) | 181 to 183
22 | CCSc1nc2c(C)ccnc2n1Cc1ccc(-n2cc(Cl)cc2-c2nnn[nH]2)cc1 | 88 to 90
23 | O=C1C=C(NC2CCN(Cc3ccccc3)CC2)CCC1 | 171 to 172
24 | O=C1N=NC(=O)c2ccccc21 | 257 to 259
25 | O=C(Nc1ccnc(C(=O)NO)c1)c1ccccc1 | 175 to 184

Row | Compound | melting point [°C]
26 | CC(=O)c1ccc2cc(C(C)Br)ccc2c1 (stereo not given) | 64 to 66
27 | Cc1nc2ccc(F)cc2[nH]1 | 177 to 178
28 | COc1cc2c(cc1OC)CN(CCCc1ccc(NC(=O)c3cc4ccccc4cn3)cc1)CC2 | 146
29 | CSc1nc(N)n(C(=O)c2ccc(Cl)cc2)n1 | 175 to 177
30 | NNC(=O)c1ccccc1CS(N)(=O)=O | 221 to 222
31 | CC12CCC(C(=O)N(CCCCN3CCN(c4ncccn4)CC3)C1=O)C2(C)C (stereo not given) | 92 to 94
32 | CS(=O)c1ccc(-c2ccc(C=C(Cl)Cl)s2)cc1 (stereo not given) | 124 to 126
33 | CCCC(=O)Nc1ccc(C2=NNC(=O)NC2C)cc1 (stereo not given) | 232 to 234
34 | CC(C)C(NC(=O)OCCN1CCOCC1)C(=O)NC(Cc1ccccc1)C(O)C(Cc1ccccc1)NC(=O)C(NC(=O)OCCN1CCOCC1)C(C)C (stereo not given) | 122 to 123
35 | CN(C)C(=C[N+](=O)[O-])NCc1ccc(Cl)nc1 | 124 to 125
36 | O=c1c2cccnc2[nH]c2ccnn12 | > 300
37 | COC(=O)c1cc(C(=O)NN2CCOCC2)c2cc(Cc3ccc(F)cc3)cnc2c1O | > 250
38 | Clc1ccc2c(c1)C(c1ccccc1)=NCCN2C1=NCCO1 | 125 to 126
39 | CCc1cc(N)c(C(=O)OC)c(CC)n1 | 75
40 | Cc1ccc(S(=O)(=O)c2ccc(C(F)(F)F)cc2NC(=O)N[C@@H](Cc2ccc(NC(=O)c3c(Cl)cccc3Cl)cc2)C(=O)O)cc1 | 233
41 | CCOC(=O)c1cccc(C#CC2(O)CN3CCC2CC3)c1 (stereo not given) | 155 to 156
42 | Cc1cccc(CN2C(=O)C3(COc4cc5c(cc43)OCCO5)c3ccccc32)n1 (stereo not given) | 183 to 185
43 | COCCc1nc2c(N)nc3ccccc3c2n1CCOc1ccccc1 | 171 to 174
44 | COC(=O)C1=C(C)Nc2nc(N)nc(N)c2C1c1ccccc1F (stereo not given) | 208
45 | O=c1n(CCCC2CCCC2)ccn1-c1ccc(NS(=O)(=O)c2ccc3c(c2)CCC(CNCC(O)c2cccnc2)O3)cc1 (stereo not given) | 90 to 92
46 | N=C(N)NCCNc1c(C(=O)O)cnc2ccccc12 | 267
47 | COc1c2c(cc3ccccc13)C(=O)NC2=O | 216 to 220
48 | COc1cc(C(=O)NCCc2ccccc2)cc([N+](=O)[O-])c1OC | 121 to 122
49 | O=S(c1ccc(C=Cc2nc(CCl)cs2)cc1)C(F)(F)F (stereo not given) | 98 to 99
50 | O=C1NC(=S)NC(=O)C1=Cc1ccc[nH]1 | 280
